Series [1] is described as follows: Accelerated deterioration (xenon weather meter X25, 120 hours) of photochromic laminate prepared by coating method. It is filed as physicochemical. The following applies: 0.25 mmol per 100 g monomers, A120/A0×100 after 120 hours xenon weather meter. An excerpt:
First, the photochromic compound obtained in Example 1, a photoinitiator, and a polymerizable compound were mixed to obtain a curable composition.
Polyethylene glycol dimethacrylate (average molecular weight: 736): 42 parts by mass • Polyethylene glycol dimethacrylate (average molecular weight: 536): 12 parts by mass • Trimethylolpropane trimethacrylate: 38 parts by mass γ-methacryloyloxypropyl trimethoxysilane: 2 parts by mass Glycidyl methacrylate: 1 part by mass
Note that the photochromic compound was added to the curable composition so that the amount of the photochromic compound was 0.25 mmol based on 100 g of the total amount of the radical-polymerizable monomers.
Phenylbis(2,4,6-trimethylbenzoyl)phosphine oxide (photoinitiator: Omnirad 819): 0.3 parts by mass Ethylene bis(oxyethylene) bis[3-(5-tert-butyl-4-hydroxy-m-tolyl)propionate] (stabilizer, Irganox 245): 1 part by mass Bis(1,2,2,6,6-pentamethyl-4-piperidyl) sebacate: 3 parts by mass Leveling agent (L7001) manufactured by Dow Corning Toray Co.,Ltd.: 0.1 part by mass
First, a thiourethane-based plastic lens having a central thickness of 2 mm and a refractive index of 1.60 was prepared as the optical substrate. Note that this thiourethane-based plastic lens was pre-treated by alkaline etching with a 10% sodium hydroxide aqueous solution at 50°C for 5 minutes, followed by sufficient washing with distilled water.
A surface of the above-described plastic lens was coated with a moisture-curable primer (product name: TR-SC-P, manufactured by Tokuyama Corporation) at a rotation frequency of 70 rpm for 15 seconds, followed by 1000 rpm for 10 seconds, using a spin coater (1H-DX2, manufactured by MIKASA CO., LTD), Subsequently, about 2 g of the photochromic curable composition obtained above was spin-coated at a rotation frequency of 60 rpm for 40 seconds, followed by 600 rpm for 10 to 20 seconds, to form a photochromic coating layer with a film thickness of 40 µm.
The lens with the surface coated with the photochromic curable composition (photochromic coating layer) was irradiated with light using a metal halide lamp with an output power of 200 mW/cm^2 in a nitrogen gas atmosphere for 90 seconds to cure the coating film. Subsequently, the lens was further heated at 110°C for 1 hour to prepare a photochromic laminate having a photochromic layer.
• [1] Maximum Absorption Wavelength (λmax): The maximum absorption wavelength after color development, measured using a spectrophotometer (instantaneous multichannel photodetector MCPD3000) manufactured by Otsuka Electronics Co., Ltd. was used as an indicator for the color tone during the color development. • [2] 23°C Color Optical Density (A23): A difference between an absorbancy measured after light irradiation at 23°C for 300 seconds {ε(300)} and an absorbancy without light irradiation ε(0) at the maximum absorption wavelength was used as an indicator for the color optical density. […] 23°C color fading half-life [τ1/2 (sec.)]: A time required for the absorbancy of the sample at the maximum absorption wavelength to decrease to 1/2 of {ε(300)-ε(0)} when the light irradiation was terminated after the light irradiation at 23°C for 300 seconds, was used as an indicator for the color fading speed. The shorter this time, the higher the color fading speed. • [4] Residual rate (A120/A0×100): The obtained photochromic plastic lens was subjected to accelerated deterioration using a xenon weather meter X25 manufactured by Suga Test Instruments Co., Ltd. for 120 hours. Subsequently, the color optical density was evaluated before and after the test, then a color optical density before the test (A0) and a color optical density after the test (A120) were measured, and a ratio (A120/A0) was defined as a residual rate. The residual rate was used as an indicator for a color developing durability. The higher the residual rate, the higher the color developing durability. […]

Series [2] can be described thus: Accelerated deterioration (xenon weather meter X25, 120 hours) of photochromic cured product prepared by kneading method. It is filed as physicochemical. The following applies: 1 mm cured product, 0.106 mmol per 100 g monomer, A120/A0×100 after 120 hours xenon weather meter. The method, then: • [1] Maximum Absorption Wavelength (λmax): The maximum absorption wavelength after color development, measured using a spectrophotometer (instantaneous multichannel photodetector MCPD3000) manufactured by Otsuka Electronics Co., Ltd. was used as an indicator for the color tone during the color development. • [2] 23°C Color Optical Density (A23): A difference between an absorbancy measured after light irradiation at 23°C for 300 seconds {ε(300)} and an absorbancy without light irradiation ε(0) at the maximum absorption wavelength was used as an indicator for the color optical density. […] 23°C color fading half-life [τ1/2 (sec.)]: A time required for the absorbancy of the sample at the maximum absorption wavelength to decrease to 1/2 of {ε(300)-ε(0)} when the light irradiation was terminated after the light irradiation at 23°C for 300 seconds, was used as an indicator for the color fading speed. The shorter this time, the higher the color fading speed. • [4] Residual rate (A120/A0×100): The obtained photochromic plastic lens was subjected to accelerated deterioration using a xenon weather meter X25 manufactured by Suga Test Instruments Co., Ltd. for 120 hours. Subsequently, the color optical density was evaluated before and after the test, then a color optical density before the test (A0) and a color optical density after the test (A120) were measured, and a ratio (A120/A0) was defined as a residual rate. The residual rate was used as an indicator for a color developing durability. The higher the residual rate, the higher the color developing durability. The results of Examples 26, 50, and Comparative Examples 1 to 8 are summarized in Table 1, and the results of Examples 27 to 49 are summarized in Tables 2 and 3.
First, the photochromic compound obtained in Example 1, additives, and a polymerizable compound were mixed to obtain a curable composition.
As the polymerizable compound, a combination of the following polymerizable monomers was used. • 1,3-bis(isocyanatomethyl)cyclohexane: 36.7 parts by mass Pentaerythritol tetrakis(3-mercaptopropionate): 39.4 parts by mass • Polyoxyethylene polyoxypropylene lauryl ether (Wonder Surf 140 manufactured by Aoki Oil Industrial Co., Ltd.): 17.4 parts by mass • 1-decanethiol: 2.8 parts by mass • RX-1 adjusted according to the method described in Patent Document 13: 3.8 parts by mass
Note that the photochromic compound was added to the curable composition so that the amount of the photochromic compound was 0.106 mmol based on 100 g of the total amount of the polymerizable monomer. The following additives were used: Dimethyltin dichloride • : 0.05 part by mass • Irganox 245: 0.1 part by mass • 2-ethylhexyl 4-methoxycinnamate: 0.6 part by mass
The prepared curable composition was thoroughly defoamed, then injected into a glass mold having a 1 mm gap, and polymerized by cast polymerization. The polymerization was carried out in an air furnace while gradually raising the temperature from 27°C to 120°C over 18 hours. After the polymerization, the cured product was removed from the glass mold to obtain a photochromic cured product having a thickness of 1 mm. The obtained photochromic cured product was evaluated in the same manner as in Example 26.
(Examples 85 to 99, and Comparative Example 14 to 18) Photochromic cured products were prepared using photochromic compounds presented in Tables 6 and 7 in the same manner as in Example 84. The results of Examples 84 and 85 and Comparative Examples 14 to 18 are summarized in Table 6, and the results of Examples 86 to 99 are summarized in Table 7.

SMILES strings stand for the structures.

With `COCCOCCC1(CCOCCOC)c2cc(C)ccc2-c2c1c1c(c3cc(C)ccc23)OC(c2ccc(N(C)c3ccc(F)cc3)cc2)(c2ccc(OC)c(OC)c2)C=C1` (stereo not shown) [Example 8], the Residual rate in series [1] is 60%; in series [2], 68%.

On to `CCCC1(CCC)c2ccccc2-c2c1c1c(c3cc(OC)c(-c4ccc(OC)cc4OC)cc23)OC(c2ccc(C)cc2)(c2ccc(N(C)c3ccccc3)cc2)C=C1` (stereo not shown) [Example 19], for which the Residual rate in series [1] was determined as 64%; in series [2], 73%.

For `CCCCC1(CCCC)c2cc(-c3ccc(OC(C)C)cc3)ccc2-c2c1c1c(c3cc(OC)ccc23)OC(c2ccc(N(C)c3ccccc3)cc2)(c2ccc(OC)c(F)c2)C=C1` (stereo not shown) [Example 21], the Residual rate in series [1] stood at 60%; in series [2] it was 68%.

For the compound `COCCC1(CCOC)c2ccccc2-c2c1c1c(c3cc(OC)c(-c4ccc(N(c5ccccc5)c5ccccc5)cc4)cc23)OC(c2ccc(Oc3ccccc3)cc2)(c2ccc(N(C)c3ccccc3)cc2)C=C1` (stereo not shown) [Example 23], the Residual rate in series [1] amounted to 60%.

Take `COc1ccc(N(C)c2ccc(C3(c4ccc(CCO[Si](C)(C)CC[Si](O[Si](C)(C)C)(O[Si](C)(C)C)O[Si](C)(C)C)cc4)C=Cc4c5c(c6cc(N(C)c7ccccc7)c(OC)cc6c4O3)-c3ccc(C(F)(F)F)cc3C53CCC(C)(C)CC3)cc2)cc1` (stereo not shown) [Example 60]: the Residual rate in series [1] turned out to be 62%; in series [1] (listed as Formula (121)), 64%.

Turning to `COCCN(c1ccccc1)c1ccc(C2(c3ccc4c(c3)OCCO4)C=Cc3c4c(c5cc6c(cc5c3O2)SC(C)(C)O6)-c2ccccc2C42CCC3(CCCCC3)CC2)cc1` (stereo not shown) [Example 14], the figures for the Residual rate in series [1], in series [2] and in series [2] (listed as Formula (71)) were 63%, 71% and 70%, respectively.

`CCCCOCCC1(CCOCCCC)c2ccccc2-c2c1c1c(c3cc(OC)c(NC(=O)c4ccccc4)cc23)OC(c2ccc(N(C)c3ccccc3)cc2)(c2ccc(OC)c(F)c2)C=C1` (stereo not shown) [Example 53]: the Residual rate in series [1] was 58%; in series [1] (listed as Formula (95)), 60%.

On to `CCCC1(CCC)c2cc(OC(F)(F)F)ccc2-c2c1c1c(c3cc(OC)c(Sc4c(C)cccc4C)cc23)OC(c2ccc(N(C)c3ccccc3)cc2)(c2ccc(OC)c(OC)c2)C=C1` (stereo not shown) [Example 57], for which the values for the Residual rate in series [1] and in series [2] were 65% and 72%, respectively.

In the case of `COc1ccc(C2(c3ccc(N(C)c4ccccc4)cc3)C=Cc3c4c(c5cc(-c6ccc(N7CCOCC7)cc6)c(OC)cc5c3O2)-c2ccccc2C4(C)C)cc1` (stereo not shown) [Example 1], the Residual rate in series [1] amounted to 65%; in series [2], 72%.

For `CCCC1(CCC)c2ccccc2-c2c1c1c(c3cc(OC)c(-c4ccc(OC)cc4OC)cc23)OC(c2ccc(N(C)c3ccccc3)cc2)(c2ccc(OC)c(F)c2)C=C1` (stereo not shown) [Example 7], the Residual rate in series [1] amounted to 61%; in series [2], 68%.

In the case of `CCCC1(CCC)c2ccccc2-c2c1c1c(c3cc(OC)c(-c4ccc(N(C)c5ccccc5)cc4)cc23)OC(c2ccc(C)cc2)(c2ccc(N(C)c3ccccc3)cc2)C=C1` (stereo not shown) [Example 24], the Residual rate is recorded as 62% in series [1] and 65% in series [2].

For `COCCOCCOCCOCCC1(CCOCCOCCOCCOC)c2cc(C(F)(F)F)ccc2-c2c1c1c(c3cc(OC)c(OC)cc23)OC(c2ccc(OC)cc2)(c2ccc(N(C)c3ccccc3)cc2)C=C1` (stereo not shown) [Example 51], the Residual rate in series [1] amounted to 60%; in series [2] it was 68%.

Turning to `COCCCCC1(CCCCOC)c2ccccc2-c2c1c1c(c3cc(-c4ccc(OC)cc4OC)c(OC)cc23)OC(c2ccc(N(C)c3ccccc3)cc2)(c2ccc3c(c2)CCO3)C=C1` (stereo not shown) [Example 62], the figures for the Residual rate in series [1] and in series [2] were 61% and 67%, respectively.

As to `CCCc1ccc(C2(c3ccc(N(C)c4ccccc4)cc3)C=Cc3c4c(c5cc(Sc6c(C)cccc6C)c(OC)cc5c3O2)-c2ccccc2C42CC(C)(C)CC(C)(C)C2)cc1` (stereo not shown) [Example 5], the Residual rate in series [1] stood at 68%; in series [2] it was 75%.

On to `CCCC1(CCC)c2cc(OC)ccc2-c2c1c1c(c3cc(OC)ccc23)OC(c2ccc(OC)cc2)(c2ccc(N(C)c3ccccc3)cc2)C=C1` (stereo not shown) [Example 3], for which the Residual rate in series [1] was 55%; in series [2] it was 61%.

With `CCC1(CC)CCC2(CC1)c1cc(OC(F)(F)F)ccc1-c1c2c2c(c3cc(OC)ccc13)OC(c1ccc(N(C)c3ccccc3)cc1)(c1ccc(OC)c(C)c1)C=C2` (stereo not shown) [Example 16], the Residual rate in series [1] is 57%; in series [2] it was 64%.

`COCCCCC1(CCCCOC)c2cc(Sc3c(C)cccc3C)ccc2-c2c1c1c(c3cc(OC)ccc23)OC(c2ccc(OC)cc2)(c2ccc(N(C)c3ccc(OC)cc3)cc2)C=C1` (stereo not shown) [Example 11] gave a Residual rate in series [1] of 60%.

As for `CCCCN(c1ccccc1)c1ccc(C2(c3ccc(C)cc3)C=Cc3c4c(c5cc(N6CCOCC6)c(OC)cc5c3O2)-c2ccccc2C4(CC)CC)cc1` (stereo not shown) [Example 10], the Residual rate is reported as 60% in series [1], 64% in series [1] (listed as Formula (62)), 68% in series [2] and 70% in series [2] (listed as Formula (62)).

The values are drawn from patent EP4692072A1, “PHOTOCHROMIC COMPOUND, PROPARGYL ALCOHOL COMPOUND, CURABLE COMPOSITION, OPTICAL ARTICLE, LENS, AND SPECTACLES” (TOKUYAMA CORPORATION, priority 2023, dated 2024).
